Experimental findings from patent publication US8575158B2, “1-phenyl-substituted heterocyclyl derivatives and their use as prostaglandin D2 receptor modulators” (Actelion Pharmaceuticals Ltd., priority 2010, dated 2013) are described below.

The test addresses T1, hCRTH2 receptor (Homo sapiens, UniProt Q9Y5Y4).
T1 construct: expressed in transfected cells; host or cells: HEK293
T1 sequence (Q9Y5Y4 1-395): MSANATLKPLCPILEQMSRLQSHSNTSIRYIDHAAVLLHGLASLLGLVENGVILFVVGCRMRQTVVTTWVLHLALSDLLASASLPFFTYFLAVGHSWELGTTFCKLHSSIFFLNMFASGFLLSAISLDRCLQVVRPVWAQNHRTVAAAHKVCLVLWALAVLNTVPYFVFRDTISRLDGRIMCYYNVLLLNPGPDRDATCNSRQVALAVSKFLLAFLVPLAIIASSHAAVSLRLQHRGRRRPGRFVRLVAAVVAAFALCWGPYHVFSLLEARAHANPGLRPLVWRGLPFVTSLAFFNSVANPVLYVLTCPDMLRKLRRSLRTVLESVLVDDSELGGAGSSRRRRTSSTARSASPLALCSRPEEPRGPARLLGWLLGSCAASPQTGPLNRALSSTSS
The test can be described thus: Radioligand displacement assay (3H-PGD2) on hCRTH2 receptor membranes. The class given is binding. As to conditions: antagonistic activity.

Where [1] appears, read: 3H-PGD2 radioligand displacement, HEK293-hCRTH2 membranes.
The mark [2] stands for this setting: 3H-PGD2 displacement on HEK293-hCRTH2 membrane fragments.

SMILES strings stand for the structures.

With `O=C(O)COc1ccc(Cl)cc1[C@@H]1c2cccc(F)c2CCN1C(=O)OCc1cccc(F)c1` [Example 358, (S)-1-(2-Carboxymethoxy-5-chloro-phenyl)-5-fluoro-3,4-dihydro-1H-isoquinoline-2-carboxylic acid 3-fluoro-benzyl ester], the IC50 under setting [1] was 2.84 nM. Under setting [2], `O=C(O)COc1ccc(Cl)cc1C1c2ccccc2CCN1C(=O)CCCc1cccc(F)c1` (racemic) [Example 108, (±)-(4-Chloro-2-{2-[4-(3-fluoro-phenyl)-butyryl]-1,2,3,4-tetrahydro-isoquinolin-1-yl}-phenoxy)-acetic acid] returned an IC50 of 35.9 nM. That is a double-digit nanomolar value.

In turn, `Cc1ccc(COC(=O)N2CCc3ccccc3C2c2cc(Cl)ccc2OCC(=O)O)cc1` (racemic) [Example 360] came in with an IC50 under setting [1] of 18.8 nM. `Cc1ccccc1CCC(=O)N1CCc2ccccc2C1c1cc(Cl)ccc1OCC(=O)O` (racemic) [Example 104, (±)-{4-Chloro-2-[2-(3-o-tolyl-propionyl)-1,2,3,4-tetrahydro-isoquinolin-1-yl]-phenoxy}-acetic acid]: the IC50 under setting [2] amounted to 28.6 nM. That is a double-digit nanomolar value. For the molecule `O=C(O)COc1ccc(F)cc1C1c2ccccc2CCN1C(=O)CCc1ccccc1F` (racemic) [Example 139, (±)-(4-Fluoro-2-{2-[3-(2-fluoro-phenyl)-propionyl]-1,2,3,4-tetrahydro-isoquinolin-1-yl}-phenoxy)-acetic acid], the IC50 under setting [2] worked out at 233 nM. Same read-out and setting: as for `O=C(O)COc1ccc(Cl)cc1C1c2ccccc2CCN1C(=O)CCCc1ccccc1` (racemic) [Example 107, (±)-{4-Chloro-2-[2-(4-phenyl-butyryl)-1,2,3,4-tetrahydro-isoquinolin-1-yl]-phenoxy}-acetic acid], the figure is 20.6 nM; as for `O=C(O)COc1cc(F)c(F)cc1C1c2ccccc2CCN1C(=O)OCc1ccccc1` (racemic) [Example 6, (±)-1-(2-Carboxymethoxy-4,5-difluoro-phenyl)-3,4-dihydro-1H-isoquinoline-2-carboxylic acid benzyl ester], 30.1 nM; as for `O=C(O)COc1ccc(F)cc1C1c2ccccc2CCN1C(=O)CNS(=O)(=O)c1ccccc1F` (racemic) [Example 208], 983 nM. As for `O=C(O)COc1ccccc1C1c2ccccc2CCN1C(=O)OCc1ccccc1` (racemic) [Example 366], the IC50 under setting [1] worked out at 41.5 nM. Same read-out and setting: with `O=C(O)COc1ccc(Cl)cc1C1c2ccccc2CCN1C(=O)[C@@H]1C[C@H]1c1ccc(C(F)(F)F)cc1` (mixture of isomers) [Example 419] the figure was 958 nM. `O=C(O)COc1ccc(Cl)cc1C1c2ccccc2CCN1C(=O)CCCc1ccccc1F` (racemic) [Example 115, (±)-(4-Chloro-2-{2-[4-(2-fluoro-phenyl)-butyryl]-1,2,3,4-tetrahydro-isoquinolin-1-yl}-phenoxy)-acetic acid] displayed an IC50 under setting [2] of 27 nM. Still for that read-out and setting: with `O=C(O)COc1ccc(Cl)cc1[C@@H]1c2ccccc2CCN1C(=O)OCc1cnccn1` [Example 282, (S)-1-(2-Carboxymethoxy-5-chloro-phenyl)-3,4-dihydro-1H-isoquinoline-2-carboxylic acid pyrazin-2-ylmethyl ester] the figure was 3.96 nM.

For `O=C(O)COc1ccc(Cl)cc1C1c2cccc(F)c2CN1C(=O)OCc1ccccc1` (racemic) [Example 501], the IC50 under setting [1] came out at 8.12 nM.

Under setting [1], `O=C(O)COc1ccc(Cl)cc1C1c2ccccc2CCN1C(=O)CCn1ccc2cccc(Cl)c21` (racemic) [Example 380] yielded an IC50 of 24.3 nM. Compared with the last molecule, the IC50 is about 3-fold higher. Under setting [2], `Cc1ccccc1/C=C/C(=O)N1CCc2ccccc2C1c1cc(F)ccc1OCC(=O)O` (racemic) [Example 142, (±)-{4-Fluoro-2-[2-((E)-3-o-tolyl-acryloyl)-1,2,3,4-tetrahydro-isoquinolin-1-yl]-phenoxy}-acetic acid] had an IC50 of 349 nM. With `O=C(O)COc1ccc(Cl)cc1C1c2ccccc2CN1C(=O)CCn1ncc2cc(F)ccc21` (single isomer, unassigned) [Example 543, (4-Chloro-2-{2-[3-(5-fluoro-indazol-1-yl)-propionyl]-2,3-dihydro-1H-isoindol-1-yl}-phenoxy)-acetic acid], the IC50 under setting [1] was determined as 353 nM. On to `O=C(O)COc1ccc(F)cc1C1c2ccccc2CCN1C(=O)Cc1ccc(-c2ccccc2)cc1` (racemic) [Example 60], for which, under setting [2], the IC50 amounted to 577 nM.

`O=C(O)COc1ccc(Cl)cc1C1c2ccccc2CCN1C(=O)[C@@H]1C[C@H]1c1cccc(C(F)(F)F)c1` (mixture of isomers) [Example 426] came in with an IC50 under setting [1] of 93.8 nM. In turn, `O=C(O)COc1ccc(F)cc1C1c2ccccc2CCN1C(=O)CCc1c(Cl)cccc1Cl` (racemic) [Example 53, (±)-(2-{2-[3-(2,6-Dichloro-phenyl)-propionyl]-1,2,3,4-tetrahydro-isoquinolin-1-yl}-4-fluoro-phenoxy)-acetic acid] registered an IC50 under setting [2] of 877 nM. Still for that read-out and setting: as for `COc1ccc2c(CC(=O)N3CCc4ccccc4C3c3cc(Cl)ccc3OCC(=O)O)coc2c1` (racemic) [Example 92, (±)-(4-Chloro-2-{2-[2-(6-methoxy-benzofuran-3-yl)-acetyl]-1,2,3,4-tetrahydro-isoquinolin-1-yl}-phenoxy)-acetic acid], the figure is 2.86 nM. Molecule `O=C(O)COc1ccc(Cl)cc1C1c2ccccc2CN1C(=O)CCn1ncc2cc(F)ccc21` (single isomer, unassigned) [Example 527, (4-Chloro-2-{2-[3-(5-fluoro-indazol-1-yl)-propionyl]-2,3-dihydro-1H-isoindol-1-yl}-phenoxy)-acetic acid] gave an IC50 under setting [1] of 8.12 nM.

Under setting [2], `O=C(O)COc1ccc(F)cc1C1c2ccccc2CCN1C(=O)COc1ccccc1` (racemic) [Example 125, (±)-{4-Fluoro-2-[2-(2-phenoxy-acetyl)-1,2,3,4-tetrahydro-isoquinolin-1-yl]-phenoxy}-acetic acid] registered an IC50 of 175 nM. With `O=C(O)COc1ccc(Cl)cc1C1c2ccccc2CCN1C(=O)COc1cccnc1` (racemic) [Example 416], the IC50 under setting [1] came out at 215 nM. `COc1ccc2c(c1)C(c1cc(F)ccc1OCC(=O)O)N(C(=O)OCc1ccccc1)CC2` (racemic) [Example 37, (±)-1-(2-Carboxymethoxy-5-fluoro-phenyl)-7-methoxy-3,4-dihydro-1H-isoquinoline-2-carboxylic acid benzyl ester]: under setting [2], the IC50 was determined as 19.9 nM. Molecule `Cn1nc(COC(=O)N2CCc3ccccc3[C@H]2c2cc(Cl)ccc2OCC(=O)O)c2ccccc21` [Example 296, (S)-1-(2-Carboxymethoxy-5-chloro-phenyl)-3,4-dihydro-1H-isoquinoline-2-carboxylic acid 1-methyl-1H-indazol-3-ylmethyl ester] yielded an IC50 under setting [1] of 1.72 nM. This lies in the single-digit nanomolar range. Under setting [2], `N#Cc1ccc(OCC(=O)O)c(C2c3ccccc3CCN2C(=O)[C@@H]2C[C@H]2c2ccccc2)c1` (mixture of isomers) [Example 218, (±)-{4-Cyano-2-[2-(trans-2-phenyl-cyclopropanecarbonyl)-1,2,3,4-tetrahydro-isoquinolin-1-yl]-phenoxy}-acetic acid] returned an IC50 of 13.4 nM. Under setting [2], `O=C(O)COc1ccc(Cl)cc1C1c2ccccc2CCN1C(=O)CCCc1cccc(Cl)c1Cl` (racemic) [Example 109, (±)-(4-Chloro-2-{2-[4-(2,3-dichloro-phenyl)-butyryl]-1,2,3,4-tetrahydro-isoquinolin-1-yl}-phenoxy)-acetic acid] came in with an IC50 of 16.9 nM. On the same count and under the same terms, as for `O=C(O)COc1ccc(Cl)cc1C1c2ccccc2CCN1C(=O)C1CC1c1ccccc1C(F)(F)F` (single isomer, unassigned) [Example 155, (±)-(4-Chloro-2-{2-[(trans)-2-(2-trifluoromethyl-phenyl)-cyclopropanecarbonyl]-1,2,3,4-tetrahydro-iso-quinolin-1-yl}-phenoxy)-acetic acid (diatereoisomer 1)], the figure is 166 nM. In turn, `O=C(O)COc1ccc(Cl)cc1C1c2ccccc2CCN1C(=O)CCn1ccc2ccc(Cl)cc21` (racemic) [Example 386] gave an IC50 under setting [1] of 11.6 nM. On the same count and under the same terms, as for `Cc1nc(C)c(C2CC2C(=O)N2CCc3ccccc3C2c2cc(Cl)ccc2OCC(=O)O)s1` (racemic) [Example 467, (±)-(4-Chloro-2-{2-[2-(2,4-dimethyl-thiazol-5-yl)-cyclopropanecarbonyl]-1,2,3,4-tetrahydro-isoquinolin-1-yl}-phenoxy)-acetic acid], the figure is 396 nM. Turning to `Cc1cccc2c1CCN(C(=O)OCc1ccccc1)C2c1cc(F)ccc1OCC(=O)O` (racemic) [Example 39, (±)-1-(2-Carboxymethoxy-5-fluoro-phenyl)-5-methyl-3,4-dihydro-1H-isoquinoline-2-carboxylic acid benzyl ester], the half-maximal inhibitory concentration (IC50) under setting [2] worked out at 22.2 nM. With `Cc1ccc(OCC(=O)N2Cc3ccccc3C2c2cc(Cl)ccc2OCC(=O)O)c(C)n1` (racemic) [Example 512], the IC50 under setting [1] was found to be 42.5 nM.

For the molecule `O=C(O)COc1ccc(Cl)cc1C1c2ccccc2CCN1C(=O)CCN1CCc2ccccc21` (racemic) [Example 441], the IC50 under setting [1] came to 12.7 nM. Still for that read-out and setting: with `Cc1cnn(COC(=O)N2CCc3c(ccc(F)c3F)[C@H]2c2cc(Cl)ccc2OCC(=O)O)c1` [Example 317, (S)-1-(2-Carboxymethoxy-5-chloro-phenyl)-5,6-difluoro-3,4-dihydro-1H-isoquinoline-2-carboxylic acid 4-methyl-pyrazol-1-ylmethyl ester] the figure was 14.7 nM.

For `O=C(O)COc1ccc(Cl)cc1C1c2ccccc2CN1C(=O)CCn1ncc2ccccc21` (racemic) [Example 516], the IC50 under setting [1] turned out to be 12.5 nM.
